ChEMBL document CHEMBL1149645, “Malondialdehyde scavenging and aldose-derived Schiff bases' transglycation properties of synthetic histidyl-hydrazide carnosine analogs” (Bioorg Med Chem, 2007)
Calls of active or inactive are those of the source. The calls are words filed in the database; no cut-off is given here. Residues, ends and D or L forms follow the SMILES beside them. *: point of attachment. NHNH2 = NN*

Assay: Malondialdehyde scavenging activity in iron/ascorbate-induced oxidation in PC liposomes at 10 mM by TBARS test
Assay type: functional

Compound | Activity
NNC(=O)[C@@H](N)Cc1c[nH]cn1 | Active
NNC(=O)[C@H](Cc1c[nH]cn1)NC(=O)[C@@H](N)Cc1ccccc1 (H-Phe-His-NHNH2) | Active
Cc1c(C)c2c(c(C)c1OC(=O)CCC(=O)N[C@@H](Cc1c[nH]cn1)C(=O)NN)CCC(C)(CCCC(C)CCCC(C)CCCC(C)C)O2 (some centres undefined) | Active
NNC(=O)CNC(=O)OCc1ccccc1 | Active
CC(C)C[C@H](N)C(=O)N[C@@H](Cc1c[nH]cn1)C(=O)NN (H-Leu-His-NHNH2) | Active
CC(C)CCCC(C)[C@H]1CCC2C3CC=C4C[C@@H](OC(=O)N[C@@H](Cc5c[nH]cn5)C(=O)NN)CC[C@]4(C)C3CC[C@@]21C (some centres undefined) | Active
NNC(=O)[C@H](Cc1c[nH]cn1)NC(=O)OCc1ccccc1 | Active
NCCC(=O)N[C@@H](Cc1c[nH]cn1)C(=O)O | Active
NCC(=O)NN | Active
